# Measured values from PubChem BioAssay (NCI).
# “And” between values parts separate entries of the source, which are not always exact repeats. Equal entries are not always repeated.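 The compound was tested at five concentrations on cells cultured in 96-well plates, with a 48-hour exposure period. GI50 marks 50% less growth. TGI marks complete inhibition of growth.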
# Columns and labels:
# Assay in all cases: NCI tumour cell line growth inhibition, 48 h
# [1] = tested on: 786-0 renal
# [2] = tested on: A498 renal
# [3] = tested on: A549 NSCLC
# [4] = tested on: BT-549 breast
# [5] = tested on: CAKI-1 renal
# [6] = tested on: COLO 205 colon
# [7] = tested on: DMS 114 small cell lung
# [8] = tested on: DMS 273 small cell lung
# [9] = tested on: EKVX NSCLC
# [10] = tested on: HCC-2998 colon
# [11] = tested on: HCT-116 colon
# [12] = tested on: HL-60(TB) leukemia
# [13] = tested on: HOP-18 NSCLC
# [14] = tested on: HOP-62 NSCLC
# [15] = tested on: HOP-92 NSCLC
# [16] = tested on: HS 578T breast
# [17] = tested on: HT29 colon
# [18] = tested on: IGROV1 ovarian
# [19] = tested on: KM12 colon
# [20] = tested on: KM20L2 colon
# [21] = tested on: LXFL 529 NSCLC
# [22] = tested on: M14 melanoma
# [23] = tested on: M19-MEL melanoma
# [24] = tested on: MCF7 breast
# [25] = tested on: MDA-MB-231 breast
# [26] = tested on: MDA-MB-435
# [27] = tested on: MDA-N
# [28] = tested on: NCI-H226 lung
# [29] = tested on: NCI-H23 lung
# [30] = tested on: NCI-H460 lung
# [31] = tested on: NCI-H522 lung
# [32] = tested on: NCI/ADR-RES ovarian
# [33] = tested on: OVCAR-3 ovarian
# [34] = tested on: OVCAR-5 ovarian
# [35] = tested on: P388 leukemia
# [36] = tested on: PC-3 prostate
# [37] = tested on: RPMI-8226 leukemia
# [38] = tested on: RXF 393 renal
# [39] = tested on: SF-268 CNS
# [40] = tested on: SF-539 CNS
# [41] = tested on: SK-MEL-2 melanoma
# [42] = tested on: SK-MEL-28 melanoma
# [43] = tested on: SK-MEL-5 melanoma
# [44] = tested on: SK-OV-3 ovarian
# [45] = tested on: SN12K1 renal
# [46] = tested on: SNB-19 CNS
# [47] = tested on: SNB-75 CNS
# [48] = tested on: SNB-78 CNS
# [49] = tested on: T-47D breast
# [50] = tested on: TK-10 renal
# [51] = tested on: U251 CNS
# [52] = tested on: UACC-257 melanoma
# [53] = tested on: UO-31 renal
# [54] = tested on: XF 498 CNS
smiles,measurement,setting,value
CCOC(=O)C(CC(C)C)NC(=O)C(Cc1ccc(N(CCCl)CCCl)cc1)NC(C)=O (centres undefined),GI50,[1],4.11 µM
same,TGI,[1],16.6 µM and 8.47 µM
same,GI50,[2],18.4 µM
same,TGI,[2],37 µM and 48.4 µM
same,TGI,[3],> 100 µM and 77.5 µM
same,TGI,[4],32.3 µM
same,GI50,[5],3.71 µM
same,TGI,[5],16.2 µM and 6.73 µM
same,GI50,[6],7.01 µM
same,TGI,[6],19.8 µM and 13 µM
same,GI50,[7],1.37 µM
same,TGI,[7],12.2 µM and 7.05 µM
same,TGI,[8],20.1 µM and 24.9 µM
same,GI50,[9],19.7 µM
same,TGI,[9],35.7 µM and 27.7 µM
same,GI50,[10],17.2 µM
same,TGI,[10],31.5 µM and 30.6 µM
same,GI50,[11],12.7 µM
same,TGI,[11],29.3 µM and 39.8 µM
same,GI50,[12],2.07 µM
same,TGI,[12],28.7 µM and 3.32 µM
same,TGI,[13],33.7 µM
same,GI50,[14],6.09 µM
same,TGI,[14],23.1 µM and 14.2 µM
same,GI50,[15],1.25 µM
same,TGI,[15],3.75 µM and 1.4 µM
same,TGI,[16],20.2 µM
same,GI50,[17],14.9 µM
same,TGI,[17],36.7 µM and 31.8 µM
same,TGI,[18],33.2 µM and 29.3 µM
same,GI50,[19],17.8 µM
same,TGI,[19],37.5 µM and 44.7 µM
same,GI50,[20],13.8 µM
same,TGI,[20],29.7 µM and 46.9 µM
same,TGI,[21],26.5 µM
same,GI50,[22],4.13 µM
same,TGI,[22],15.8 µM and 8.08 µM
same,GI50,[23],6.3 µM
same,TGI,[23],19.3 µM and 15.9 µM
same,TGI,[24],25.9 µM
same,TGI,[25],23.2 µM
same,TGI,[26],11.5 µM
same,TGI,[27],6.91 µM
same,GI50,[28],12.2 µM
same,TGI,[28],28.3 µM and 41.1 µM
same,GI50,[29],5.17 µM
same,TGI,[29],16.7 µM and 16.5 µM
same,TGI,[30],14.1 µM and 17.6 µM
same,GI50,[31],2.52 µM
same,TGI,[31],8.68 µM and 3.87 µM
same,TGI,[32],68.5 µM
same,GI50,[33],15.1 µM
same,TGI,[33],29.2 µM and 13.7 µM
same,TGI,[34],32 µM and 33.5 µM
same,TGI,[35],10.6 µM
same,TGI,[36],57.8 µM
same,GI50,[37],3.19 µM
same,TGI,[37],14.8 µM and 15 µM
same,GI50,[38],2.57 µM
same,TGI,[38],6.75 µM and 4.46 µM
same,TGI,[39],22.6 µM and 20.5 µM
same,TGI,[40],10.6 µM and 9.63 µM
same,GI50,[41],1.81 µM
same,TGI,[41],4.74 µM and 5.49 µM
same,GI50,[42],14.6 µM
same,TGI,[42],31.2 µM and 19.3 µM
same,GI50,[43],10.6 µM
same,TGI,[43],23.5 µM and 10.7 µM
same,GI50,[44],21.7 µM
same,TGI,[44],58.6 µM and 35.5 µM
same,TGI,[45],10.4 µM
same,GI50,[46],19.7 µM
same,TGI,[46],81.8 µM and 42.7 µM
same,GI50,[47],8.51 µM
same,TGI,[47],21.7 µM and 24.9 µM
same,TGI,[48],16.6 µM and 17.8 µM
same,TGI,[49],11.2 µM
same,TGI,[50],30.2 µM and 32.2 µM
same,GI50,[51],10.2 µM
same,TGI,[51],26.2 µM and 27 µM
same,TGI,[52],14 µM and 13.1 µM
same,GI50,[53],13.2 µM
same,TGI,[53],73 µM and 20.4 µM
same,TGI,[54],1.14 µM
